Values of other authors, collected in publication PMC3206815, “An Essential Farnesylated Kinesin in Trypanosoma brucei” (PLoS ONE, 2011).

Molecular target: T1, TB-PFT (T. brucei protein farnesyl transferase) (Trypanosoma brucei, UniProt Q57U08+Q580J3)
T1 construct: gene Tb07.8P12.660; heterodimer
T1 sequence (Q57U08 1-585): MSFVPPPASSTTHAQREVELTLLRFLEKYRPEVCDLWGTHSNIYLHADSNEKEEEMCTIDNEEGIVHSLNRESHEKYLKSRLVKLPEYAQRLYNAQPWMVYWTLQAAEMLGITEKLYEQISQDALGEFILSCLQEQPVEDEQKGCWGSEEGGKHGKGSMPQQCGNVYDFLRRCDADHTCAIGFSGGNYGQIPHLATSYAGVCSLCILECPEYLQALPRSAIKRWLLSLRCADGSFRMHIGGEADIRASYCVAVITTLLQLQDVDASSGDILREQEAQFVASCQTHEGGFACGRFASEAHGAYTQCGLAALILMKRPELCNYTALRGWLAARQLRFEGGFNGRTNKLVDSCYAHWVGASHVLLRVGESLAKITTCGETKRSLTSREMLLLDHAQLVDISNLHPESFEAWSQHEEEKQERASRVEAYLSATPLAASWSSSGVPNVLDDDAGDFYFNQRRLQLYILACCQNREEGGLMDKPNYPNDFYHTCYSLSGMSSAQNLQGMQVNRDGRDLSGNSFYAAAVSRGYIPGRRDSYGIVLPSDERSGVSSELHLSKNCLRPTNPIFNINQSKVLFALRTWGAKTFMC
T1 sequence (Q580J3 1-612): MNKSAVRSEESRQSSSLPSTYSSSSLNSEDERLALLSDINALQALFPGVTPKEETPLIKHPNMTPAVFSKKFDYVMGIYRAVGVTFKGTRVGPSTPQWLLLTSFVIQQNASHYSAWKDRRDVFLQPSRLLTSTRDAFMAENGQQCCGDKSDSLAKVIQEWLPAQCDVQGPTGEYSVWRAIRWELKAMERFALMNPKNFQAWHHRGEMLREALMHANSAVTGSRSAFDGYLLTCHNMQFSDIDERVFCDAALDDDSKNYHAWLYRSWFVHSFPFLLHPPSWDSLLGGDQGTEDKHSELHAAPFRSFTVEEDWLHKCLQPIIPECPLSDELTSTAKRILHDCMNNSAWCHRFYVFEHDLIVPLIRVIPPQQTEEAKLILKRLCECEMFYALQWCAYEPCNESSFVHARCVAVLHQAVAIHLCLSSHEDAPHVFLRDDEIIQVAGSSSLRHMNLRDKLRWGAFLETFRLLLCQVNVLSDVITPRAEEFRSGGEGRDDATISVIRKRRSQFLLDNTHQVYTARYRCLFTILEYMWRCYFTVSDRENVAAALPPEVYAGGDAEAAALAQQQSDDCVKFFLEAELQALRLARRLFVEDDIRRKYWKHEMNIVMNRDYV
Test: PFT inhibition, method not described here
Type: biochemical
Conditions: value printed without citation or assay method; cited from earlier work

## LN-59
  IC50: 35 nM
